How the values were obtained:
Format in all cases: in vivo
[1] = test system: mouse stress-induced gastric ulcers; test: Comparative experiment on inhibition of stress-induced gastric ulcers versus representative drugs; details: mice, intragastric, stress in water 15 hours
Description: The mice were divided into four groups, to which deionized water (the solvent control group), and three kinds of Weibeisheng with pH 7, 8 and 9 at a dose of 1 g/kg were respectively intragastrically administrated. Two hours later, the mice were subjected to stress in water at 21±1° C. for 15 hours, and were administered again two hours before the end of the stress. Then the animals were killed and autopsy was performed. […]
Two hours later, the mice were subjected to stress in water at 21±1° C. for 15 hours (the drug was administered to the Weibeisheng group again two hours before the end of stress). […] After the ulcer index of each group was scored, the inhibition effect of each drug on mouse stress-induced gastric ulcers (namely, the maximum inhibition rate Emax) was calculated.
The ratios used in these two Experiment Examples were determined according to the weight of the mouse and the amount of intragastric administration.

[2] = test system: acetic-acid induced chronic gastric ulcers; test: Treatment of acetic-acid induced chronic gastric ulcers in rats
Description: After fasting for 24 hours, the rats were anesthetized and disinfected in a conventional way, and then was cut from the xiphoid down along the medioventral line to about 2 cm, so as to remove the stomach from the enterocoelia; 5 μl of 100% glacial acetic acid was injected by using a microsyringe into a position close to the muscular layer below the anterior wall serosa of the gastric antrum; when a translucent white spot with a diameter of about 3 mm appeared, the stomach was given back to the enterocoelia, and was enveloped in omentum majus; then, peritoneum, muscular layer and skin were sutured in this order.
Each drug was divided into 5 groups according to the administration method described above, namely, a model group and four groups with different doses of drugs. Each group of the drugs was administered to 6 to 8 […]. At the third day after the surgery, the treatment started by intragastrically administering drugs to the rats once a day for 7 days, wherein normal saline was administered in the same volume to the rats in the model group instead. […] The following indices were measured:
(1) ulcer index: the longest diameter in the length direction of an ulcer area and the longest diameter in the width direction perpendicular to the longest diameter in the length direction of the ulcer area were measured by a vernier caliper, and the product of the above two diameters is the ulcer index.
(2) ulcer inhibition rate: it represents the inhibition effect of a drug on the ulcer index.

[3] = test system: IL-1β-induced recurrence of acetic-acid induced chronic gastric ulcers; test: Prevention of IL-1β-induced recurrence of acetic-acid induced chronic gastric ulcers in rats; details: 10 mg/kg/d intragastric for 7 days before IL-1β
Description: In this study and experiment, we evaluated the preventive effect of the tested drug (namely, the bioactive glass) on the recurrence of chronic gastric ulcers by adopting the rat model of IL-1β-induced recurrence of acetic-acid induced chronic gastric ulcer, and using omeprazole as the control.
The model of acetic-acid induced chronic gastric ulcer was first copied here: After fasting for 24 hours, the rats were anesthetized and disinfected in a conventional way, and then was cut from the xiphoid down along the medioventral line to about 2 cm, so as to remove the stomach from the enterocoelia; 5 μl of 100% glacial acetic acid was injected by using a microsyringe into a position close to the muscular layer below the anterior wall serosa of the gastric antrum; when a translucent white spot with a diameter of about 3 mm appeared, the stomach was given back to the enterocoelia, and was enveloped in omentum majus; then, peritoneum, muscular layer and skin were sutured in this order. 90 days after the injection of acetic acid, a model of gastric ulcer recurrence was copied by intraperitoneal injection of 1 μg/kg of IL-1β according to the method described in “Role of neutrophils in a rat model of gastric ulcer recurrence caused by interleukin-1 beta”, T. Watanabe, T. Arakawa, T. Fukuda, K. Higuchi, and K. Kobayashi, Am J Pathol, 1997, 150:971-979 . […]

SMILES: COc1ccc2[nH]c([S+]([O-])Cc3ncc(C)c(OC)c3C)nc2c1 (centres unmarked) [Omeprazole, omeprazole]
- Emax (% inhibition rate) [1]: 64.8 % inhibition rate
- ED50 ([2]; Rattus norvegicus, po, 168 h, rats, intragastric once a day for 7 days, ulcer inhibition rate, read-out: ED50 (median effective dose)): 1.3 mg/kg
- median effective dose ED50 for treating chronic gastric ulcers ([2]; chronic gastric ulcers, as stated in summary/description): 1.3 mg/kg/day
- Emax (maximum inhibition rate) ([2]; rats, intragastric once a day for 7 days): 66.2 ± 7.4%
- preventive effect on the recurrence of chronic gastric ulcers (inhibition rate) [3]: 50%

— patent US9669054B2, “pH buffered bioactive glass, and its preparation process and use” (CHANGZHOU BIO-SHENG TECHNOLOGY CO., LTD., priority 2011, dated 2017)
